Measurements from PMC7026480, “Discovery of Multitarget-Directed Ligands Against Influenza A Virus From Compound Yizhihao Through a Predictive System for Compound-Protein Interactions” (Frontiers in Cellular and Infection Microbiology, 2020).
Read-outs that look alike come from different tables or passages of the source.

Experiments:
[1] = target: neuraminidase (NA) of A/PR/8/34 (H1N1) (Influenza A virus, UniProt P03468); assay: biochemical
TNF-α = type: cell-based, human; for TNF-α expression in cell culture supernatant in comparison with the model group: test concentration or dose not given here
[2] = tested on: A/Puerto Rico/8/34 (wild-type H1N1); assay: microbe, parasite or virus in culture; type: cell-based; conditions: Influenza A virus
[3] = tested on: A/Minfang/151/2000 (wild-type H3N2); assay: microbe, parasite or virus in culture; type: cell-based; conditions: Influenza A virus, H3N2, MDCK
[4] = H1N1 / PR/8, MDCK, read-out: IC50, CPE reduction, A/PR/8/34 (H1N1), Drug administration after virus inoculation
[5] = H1N1 / PR/8, MDCK, read-out: IC50, CPE reduction, A/PR/8/34 (H1N1), Pre-incubation of virus and drug
[6] = H1N1 / PR/8, MDCK, read-out: IC50, CPE reduction, A/PR/8/34 (H1N1), Simultaneous action of virus and drug
[7] = H1N1 / PR/8, MDCK, read-out: IC50, CPE reduction, A/PR/8/34 (H1N1), Virus inoculation after drug administration
[8] = read-out: IC50, CPE reduction, A/Minfang/151/2000 (H3N2), Drug administration after virus inoculation
[9] = read-out: IC50, CPE reduction, A/Minfang/151/2000 (H3N2), Pre-incubation of virus and drug
[10] = read-out: IC50, CPE reduction, A/Minfang/151/2000 (H3N2), Simultaneous action of virus and drug
[11] = read-out: IC50, CPE reduction, A/Minfang/151/2000 (H3N2), Virus inoculation after drug administration
[12] = IC50, NA inhibition test, A/PR/8/34 (H1N1)
[13] = H1N1, MDCK, read-out: IC50, CPE reduction, H1N1 wild-type, in the four modes of action tested
[14] = read-out: IC50, CPE reduction, H3N2 wild-type, in the four modes of action tested

Chain of neuraminidase (NA) of A/PR/8/34 (H1N1) (P03468 whole entry, looked up): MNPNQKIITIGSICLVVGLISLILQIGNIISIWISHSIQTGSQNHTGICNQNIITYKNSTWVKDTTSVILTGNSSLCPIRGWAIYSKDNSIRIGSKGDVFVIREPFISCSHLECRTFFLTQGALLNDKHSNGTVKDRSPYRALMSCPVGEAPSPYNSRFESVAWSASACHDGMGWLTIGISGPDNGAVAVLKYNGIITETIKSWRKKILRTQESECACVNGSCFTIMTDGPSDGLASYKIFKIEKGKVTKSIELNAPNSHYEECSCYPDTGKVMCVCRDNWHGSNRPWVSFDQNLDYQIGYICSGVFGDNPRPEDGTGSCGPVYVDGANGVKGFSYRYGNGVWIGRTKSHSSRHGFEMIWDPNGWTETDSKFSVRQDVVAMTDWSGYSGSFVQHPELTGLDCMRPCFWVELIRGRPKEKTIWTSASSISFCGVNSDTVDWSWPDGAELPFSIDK

Compound	TNF-α expression in cell culture supernatant in comparison with the model group (TNF-α)	IC50 [2, 4] [µM]	IC50 [2, 5] [µM]	IC50 [2, 6] [µM]	IC50 [2, 7] [µM]	IC50 [3, 8] [µM]	IC50 [3, 9] [µM]	IC50 [3, 10] [µM]	IC50 [3, 11] [µM]	further results
C=C(C(=O)O)[C@H]1CC[C@H](C)[C@@H]2CC(=O)C(C)=C2C1 (stereo in doubt) [Rupestonic acid]	significantly less TNF-α									IC50 ([1]; read-out: IC50, NA inhibition test, A/PR/8/34 (H1N1)): > 100 µM
C=CCC(=NOS(=O)(=O)O)S[C@@H]1O[C@H](CO)[C@@H](O)[C@H](O)[C@H]1O (stereo in doubt) [sinigrin]	significantly less TNF-α									
COc1ccc(-c2cc(=O)c3c(O)cc(O)cc3o2)cc1 [Acacetin]		62 ± 5.91	77.4 ± 25.7	> 100	> 100	> 100	12.5 ± 5.46	20.5 ± 0.86	72.5 ± 11.7	
O=c1cc(-c2ccc(O)cc2)oc2cc(O)cc(O)c12 [Apigenin]		> 100	16.7 ± 1.77	9.06 ± 0.41	> 100	> 100	9.28 ± 2.03	15.8 ± 1	> 100	
O=C(/C=C/c1ccc(O)c(O)c1)O[C@@H]1C[C@](O)(C(=O)O)C[C@@H](O)[C@H]1O [Chlorogenic acid]	significantly less TNF-α									IC50 [1, 12]: 64.6 ± 6.97 µM
Cc1cc(O)c2c(c1)C(=O)c1cc(O)cc(O)c1C2=O [Emodin]		> 100	55.9 ± 9.8	6.53 ± 0.29	> 100	> 100	18.2 ± 1.02	55.9 ± 6	> 100	
C=C[C@@H]1CNC(=S)O1 [Epigoitrin]	significantly less TNF-α									IC50 [1]: > 100 µM
O=C1Nc2ccccc2/C1=C1/Nc2ccccc2C1=O [Indirubin]		> 100	> 100	> 100	> 100	> 100	> 100	> 100	52.6 ± 27.4	
O=c1cc(-c2ccc(O)c(O)c2)oc2cc(O)cc(O)c12 [Luteolin]	significantly less TNF-α	> 100	4.53 ± 0.92	7.08 ± 0.3	> 100	> 100	44.7 ± 20	> 100	> 100	effect on TNF-α compared with positive drugs (TNF-α): greater effect on TNF-α than positive drugs
O=c1cc(-c2ccc(O)c(O)c2)oc2c([C@@H]3O[C@H](CO)[C@@H](O)[C@H](O)[C@H]3O)c(O)cc(O)c12 [Orientin]	significantly less TNF-α									IC50 [1, 12]: 53.7 ± 9.98 µM
CCOC(=O)C1=C[C@@H](OC(CC)CC)[C@H](NC(C)=O)[C@@H](N)C1 [Oseltamivir, oseltamivir phosphate, reference compound]		83.4 ± 15.6	74.9 ± 20.7	4.45 ± 0.24	11.4 ± 7.44	77.9 ± 22.1	6.25 ± 2.6	8.47 ± 1.73	54.5 ± 14.2	IC50 [2, 13]: < 100 µM; IC50 [3, 14]: < 100 µM
O=c1c(O)c(-c2ccc(O)c(O)c2)oc2cc(O)cc(O)c12 [Quercetin]		> 100	8.59 ± 1.34	5.41 ± 0.14	> 100	> 100	9.99 ± 2.84	18.3 ± 3.52	> 100	
NC(=O)c1ncn([C@@H]2O[C@H](CO)[C@@H](O)[C@H]2O)n1 [Ribavirin, ribavirin, reference compound]		16.1 ± 1.47	10.4 ± 2.19	16.4 ± 2.95	47.5 ± 7.94	22.5 ± 6.16	9.18 ± 0.99	21.7 ± 0.97	62.5 ± 16.2	IC50 [2, 13]: < 100 µM; IC50 [3, 14]: < 100 µM
O=C1c2ccccc2-n2c1nc1ccccc1c2=O [Tryptanthrin]	except tryptanthrin, were associated with significantly less TNF-α	> 100	72 ± 23.6	> 100	> 100	> 100	17.7 ± 1.74	31.8 ± 11.6	76.3 ± 3.4	
O=C(/C=C/c1ccc(O)cc1)c1ccc(O)cc1O [isoliquiritigenin]	significantly less TNF-α									effect on TNF-α compared with positive drugs (TNF-α): greater effect on TNF-α than positive drugs
COc1ccc(-c2cc(=O)c3c(O)cc(O[C@@H]4O[C@H](CO[C@@H]5O[C@@H](C)[C@H](O)[C@@H](O)[C@H]5O)[C@@H](O)[C@H](O)[C@H]4O)cc3o2)cc1 [linarin]	significantly less TNF-α									
COc1ccc(-c2cc(=O)c3c(OC)c(OC)c(OC)cc3o2)cc1OC [sinensetin]	significantly less TNF-α									
cedar acid	significantly less TNF-α									
